Data: ChEMBL document CHEMBL2176958, “Novel aromatase inhibitors by structure-guided design” (J Med Chem, 2012)
pEC50, pIC50: −log10 of the molar value.

What was measured:
[1] = (§1) Cytotoxicity against human MCF7a cells expressing Tet-off-3betaHSD1-Arom assessed as inhibition of TST-stimulated cell proliferation measured after 10 days; format: functional, cell-based; conditions: 240 h
MCF7a = experiment: as §1; format: functional, cell-based
Aromatase = biological target: T1, Aromatase (Homo sapiens, UniProt P11511); experiment: Inhibition of human placental aromatase using [3H]-1beta-androstenedione as substrate after 16 hrs by [3H]-water method; conditions: for inhibition (INH): human, 16 h
T1 sequence (P11511 whole entry): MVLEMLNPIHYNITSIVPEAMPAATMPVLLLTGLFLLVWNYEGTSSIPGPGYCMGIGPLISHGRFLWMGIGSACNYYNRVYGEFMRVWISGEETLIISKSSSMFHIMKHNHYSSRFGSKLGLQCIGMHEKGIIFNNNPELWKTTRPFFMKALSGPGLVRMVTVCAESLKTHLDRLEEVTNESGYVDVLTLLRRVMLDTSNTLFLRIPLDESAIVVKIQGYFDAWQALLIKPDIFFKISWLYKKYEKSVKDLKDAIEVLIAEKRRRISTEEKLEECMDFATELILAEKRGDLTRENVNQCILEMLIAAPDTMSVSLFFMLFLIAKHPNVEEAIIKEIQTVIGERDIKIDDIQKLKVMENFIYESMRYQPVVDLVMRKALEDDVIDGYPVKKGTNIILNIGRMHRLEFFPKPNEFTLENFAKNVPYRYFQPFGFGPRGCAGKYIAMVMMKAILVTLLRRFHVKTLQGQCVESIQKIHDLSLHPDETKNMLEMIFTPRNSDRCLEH

Structure (SMILES)	pEC50 [1]	inhibition (MCF7a)	pIC50 (Aromatase)	inhibition (INH) (Aromatase)
CCCC#CCO[C@@H]1C[C@@H]2[C@H](CC[C@]3(C)C(=O)CC[C@@H]23)[C@@]2(C)C=CC(=O)C=C12	8.47	Dose-dependent effect	7.08	Dose-dependent effect
CCC#CCO[C@@H]1C[C@@H]2[C@H](CC[C@]3(C)C(=O)CC[C@@H]23)[C@@]2(C)C=CC(=O)C=C12	10.52	Dose-dependent effect		Dose-dependent effect
CC#CCO[C@@H]1C[C@@H]2[C@H](CC[C@]3(C)C(=O)CC[C@@H]23)[C@@]2(C)C=CC(=O)C=C12	8.77	Dose-dependent effect	6.95	Dose-dependent effect
CCCCC#CCO[C@@H]1C[C@@H]2[C@H](CC[C@]3(C)C(=O)CC[C@@H]23)[C@@]2(C)C=CC(=O)C=C12	8.27	Dose-dependent effect	6.74	Dose-dependent effect
CO[C@@H]1C[C@@H]2[C@H](CC[C@]3(C)C(=O)CC[C@@H]23)[C@@]2(C)C=CC(=O)C=C12			5.28	Dose-dependent effect
CCCCCCCC#CCO[C@@H]1C[C@@H]2[C@H](CC[C@]3(C)C(=O)CC[C@@H]23)[C@@]2(C)C=CC(=O)C=C12		Dose-dependent effect	5.66	Dose-dependent effect
N#Cc1ccc(C(c2ccc(C#N)cc2)n2cncn2)cc1 [LETROZOLE]	11.40			Dose-dependent effect
C[C@]12CCC(=O)C(O)=C1CC[C@@H]1[C@@H]2CC[C@]2(C)C(=O)CC[C@@H]12 [FORMESTANE]			7.31	Dose-dependent effect
CCO[C@@H]1C[C@@H]2[C@H](CC[C@]3(C)C(=O)CC[C@@H]23)[C@@]2(C)C=CC(=O)C=C12			4.74	Dose-dependent effect
C[C@]12C=CC(=O)C=C1[C@H](OCC#CCO)C[C@@H]1[C@@H]2CC[C@]2(C)C(=O)CC[C@@H]12	9.52	Dose-dependent effect	7.70	Dose-dependent effect
